Columns and labels:
[1] = target: SPM-1 (Pseudomonas aeruginosa, UniProt Q8G9Q0); assay: SPM-1 inhibition, fluorogenic cephalosporin (FC5) hydrolysis; assay type: biochemical; settings: enethiols 6 assayed as sodium salts; 10 min incubation; read-out: IC50 SPM-1 (converted)
Method: (§1) Inhibition analyses against bacterial MBLs and SBLs were performed as described previously.[22], [24], [26] Residual enzyme activities were determined for a range of inhibitor concentrations. Non-linear regression fitting of IC50 curves was carried out using a three-parameter dose–response curve in GraphPad Prism. Errors in IC50 values are expressed as: σ(logIC50)/logIC50×IC50
(§2) We first screened the inhibitors against a representative set of presently clinically important and other MBLs[22], comprising both Class B1 enzymes (NDM-1, New Delhi MBL-1; VIM-2, Verona integron–encoded MBL-2; BcII, Bacillus cereus II MBL; SPM-1, São Paulo MBL-1; IMP-1, imipenemase MBL-1) and the Class B2 MBL CphA (carbapenem hydrolysing MBL from Aeromonas hydrophila).[22] The latter MBL (CphA) only utilises one active site Zn(II) ion in catalysis, whilst the others normally use two Zn(II) ions.
Figure S5: IC50 curves for SPM-1 inhibition time courses. Residual activities were calculated from the
(§3) initial rate of FC5 hydrolysis after incubation of the enzyme with the inhibitor for 10 minutes. […]

[2] = target: T1, IMP-1 (Serratia marcescens, UniProt P52699); assay: IMP-1 inhibition, fluorogenic cephalosporin (FC5) hydrolysis; assay type: biochemical; settings: enethiols 6 assayed as sodium salts; 10 min incubation; read-out: IC50 IMP-1 (converted)
T1 construct: made in house
T1 sequence (P52699 19-246, looked up, species assumed): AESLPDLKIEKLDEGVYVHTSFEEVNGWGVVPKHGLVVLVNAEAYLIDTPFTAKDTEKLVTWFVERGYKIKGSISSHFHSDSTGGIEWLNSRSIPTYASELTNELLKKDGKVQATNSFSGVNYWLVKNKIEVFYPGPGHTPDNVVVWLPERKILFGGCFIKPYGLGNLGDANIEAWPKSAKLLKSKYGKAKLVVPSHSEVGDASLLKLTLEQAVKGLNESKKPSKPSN
Method: as §1, §2
Figure S3: IC50 curves for IMP-1 inhibition time courses. Residual activities were calculated from the
initial rate of FC5 hydrolysis after incubation of the enzyme with the inhibitor for 10 minutes.

[3] = target: T2, BcII (Bacillus cereus, UniProt P04190); assay: biochemical; settings: enethiols 6 assayed as sodium salts; 10 min incubation; read-out: IC50 BcII (converted)
T2 construct: made in house
T2 sequence (P04190 31-257): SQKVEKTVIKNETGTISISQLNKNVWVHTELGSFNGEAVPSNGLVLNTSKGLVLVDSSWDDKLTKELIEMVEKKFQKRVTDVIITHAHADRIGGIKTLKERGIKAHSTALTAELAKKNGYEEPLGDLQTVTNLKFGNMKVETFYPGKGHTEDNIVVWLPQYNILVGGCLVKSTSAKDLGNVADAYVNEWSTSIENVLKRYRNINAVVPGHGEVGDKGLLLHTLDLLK
Method: as §1, §2
Figure S2: IC50 curves for BcII inhibition time courses. Residual activities were calculated from the initial
rate of FC5 hydrolysis after incubation of the enzyme with the inhibitor for 10 minutes. […]

[4] = target: T3, VIM-2 (Escherichia coli, UniProt Q5U7L7); assay: biochemical; settings: enethiols 6 assayed as sodium salts; 10 min incubation; read-out: IC50 VIM-2 (converted)
T3 construct: made in house
Method: as §1
as §2, with “ions. We also screened the inhibitors against a representative panel of SBLs from different classes (TEM-1, Temoneira β-lactamase-1, class A; CTX-M-15, cefotaxime hydrolysing β-lactamase from Munich 15, class A, extended spectrum β-lactamase (ESBL); AmpC E. coli, class C, and OXA-10, oxacillinase-10, class D).” for “ions.”
Figure S6: IC50 curves for VIM-2 inhibition time courses. Residual activities were calculated from the
as §3

[5] = target: T4, NDM-1 (Klebsiella pneumoniae, UniProt C7C422); assay: NDM-1 inhibition, fluorogenic cephalosporin (FC5) hydrolysis; assay type: biochemical; settings: enethiols 6 assayed as sodium salts; 10 min incubation; read-out: IC50 NDM-1
T4 construct: made in house
T4 sequence (C7C422 29-270, looked up, species assumed): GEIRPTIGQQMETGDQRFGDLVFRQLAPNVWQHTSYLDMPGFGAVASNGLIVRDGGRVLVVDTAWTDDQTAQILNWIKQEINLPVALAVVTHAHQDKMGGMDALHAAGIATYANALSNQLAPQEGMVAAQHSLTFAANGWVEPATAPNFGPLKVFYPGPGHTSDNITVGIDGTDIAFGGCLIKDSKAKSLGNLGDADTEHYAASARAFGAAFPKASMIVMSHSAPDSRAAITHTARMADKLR
Method: as §1, §2
Figure S4: IC50 curves for NDM-1 inhibition time courses. Residual activities were calculated from the
as §3

SPM-1, sequence (Q8G9Q0 entry or part of it): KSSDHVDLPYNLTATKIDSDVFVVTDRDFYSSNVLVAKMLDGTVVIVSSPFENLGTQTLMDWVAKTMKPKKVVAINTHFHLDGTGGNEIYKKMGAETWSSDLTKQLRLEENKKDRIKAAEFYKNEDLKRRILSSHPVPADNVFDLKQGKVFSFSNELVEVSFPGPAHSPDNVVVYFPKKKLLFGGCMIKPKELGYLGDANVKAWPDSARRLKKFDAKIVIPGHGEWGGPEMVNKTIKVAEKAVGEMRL

| SMILES | IC50 [1] [µM] | IC50 [2] [µM] | IC50 [3] [µM] | IC50 [4] [µM] | IC50 [5] [µM] |
| --- | --- | --- | --- | --- | --- |
| Cc1cccc(C)c1/C=C1\SC(=S)N(CC(=O)O)C1=O [Compound 3q] | > 50 | > 50 | > 50 | 18.7 ± 1 | > 50 |
| O=C(O)/C(S)=C/c1ccc(Br)cc1 [Compound 6d] | 2.3 | 3.3 | 9.9 | 9.4 | – |
| CN1CCN(NC(=O)CN2C(=O)/C(=C/c3ccc(F)cc3)SC2=S)CC1 [Compound 5c] | > 50 | > 50 | > 50 | > 50 | > 50 |
| O=C(O)/C(S)=C/c1c(F)cccc1Cl [Compound 6j] | 0.0043 | 0.03 | 0.06 | 0.05 | 4.4 |
| O=C(O)CN1C(=O)/C(=C/c2c(F)cccc2Cl)SC1=S [Compound 3j] | 1.2 ± 0.3 | 43.7 ± 0.5 | > 50 | 9.8 ± 2.8 | > 50 |
| CN1CCN(NC(=O)CN2C(=O)/C(=C/c3cc(Cl)ccc3Cl)SC2=S)CC1 [Compound 5o] | 2.8 | 7 | 15.4 | > 50 | > 50 |
| O=C(O)/C(S)=C/c1ccccc1I [Compound 6i] | 1.4 | 0.7 | – | 3.5 | 5 |
| CN1CCN(NC(=O)CN2C(=O)/C(=C/c3ccccc3Br)SC2=S)CC1 [Compound 5h] | 8.1 | 8.3 | 14.6 | 11.4 | > 50 |
| O=C(O)CN1C(=O)/C(=C/c2c(Cl)ccc(Cl)c2Cl)SC1=S [ML302A] | 4.8 ± 0.3 | 9.6 ± 0.4 | 21.3 ± 0.5 | 3.6 ± 0.7 | > 50 |
| CN1CCN(NC(=O)CN2C(=O)/C(=C/c3ccc(Br)cc3)SC2=S)CC1 [Compound 5d] | > 50 | 28.7 | > 50 | 44 | > 50 |
| COc1ccc(/C=C(\S)C(=O)O)cc1 [Compound 6e] | 0.6 | 0.8 | 2.4 | 0.4 | 8.2 |
| O=C(O)CN1C(=O)/C(=C/c2ccccc2)SC1=S [Compound 3a] | > 50 | > 50 | > 50 | 36.8 ± 0.3 | > 50 |
| CN1CCN(NC(=O)CN2C(=O)/C(=C/c3cccc(Cl)c3Cl)SC2=S)CC1 [Compound 5n] | 0.3 | 0.6 | 1.1 | 39.5 | 32.8 |
| CN1CCN(NC(=O)CN2C(=O)/C(=C/c3ccccc3Cl)SC2=S)CC1 [Compound 5g] | 9.8 | 7.6 | > 50 | 2 | > 50 |
| O=C(O)CN1C(=O)/C(=C/c2c(F)ccc(F)c2F)SC1=S [Compound 3k] | 8.8 ± 0.3 | 46.5 ± 0.7 | 27 ± 2.2 | 47.6 ± 0.4 | > 50 |
| Cc1ccc(/C=C(\S)C(=O)O)cc1 [Compound 6b] | 0.3 | 0.2 | 0.7 | 0.4 | 3.7 |
| O=C(O)CN1C(=O)/C(=C/c2c(F)cccc2F)SC1=S [Compound 3p] | 32.1 ± 2.3 | > 50 | > 50 | 6.8 ± 0.2 | > 50 |
| O=C(O)/C(S)=C/c1ccccc1F [Compound 6f] | 0.3 | 1.4 | 4 | 3.3 | 12.9 |
| O=C(O)/C(S)=C/c1ccc(F)cc1 [Compound 6c] | 4.1 | 2.7 | 8.2 | 9.7 | 5 |
| O=C(O)CN1C(=O)/C(=C/c2ccccc2I)SC1=S [Compound 3i] | 2 ± 0.5 | 22.4 ± 0.4 | 31.7 ± 1 | 5.9 ± 0.1 | > 50 |

| SMILES | IC50 [1] [µM] | IC50 [2] [µM] | IC50 [3] [µM] | IC50 [4] [µM] | IC50 [5] [µM] |
| --- | --- | --- | --- | --- | --- |
| COc1ccc(/C=C2\SC(=S)N(CC(=O)NN3CCN(C)CC3)C2=O)cc1 [Compound 5e] | > 50 | 31.5 | > 50 | > 50 | 48.9 |
| O=C(O)/C(S)=C/c1csc2ccccc12 [Compound 6L] | 0.4 | 0.7 | 3.1 | 0.5 | 11.1 |
| CN1CCN(NC(=O)CN2C(=O)/C(=C/c3csc4ccccc34)SC2=S)CC1 [Compound 5L] | > 50 | > 50 | 7.2 | 41.8 | > 50 |
| CN1CCN(NC(=O)CN2C(=O)/C(=C/c3c(F)cccc3F)SC2=S)CC1 [Compound 5p] | 1.3 | 1.3 | 3 | 41.7 | > 50 |
| O=C(O)/C(S)=C/c1c(F)ccc(F)c1F [Compound 6k] | 0.1 | 0.4 | 0.3 | 0.3 | 3.3 |
| COc1ccc(/C=C2\SC(=S)N(CC(=O)O)C2=O)cc1 [Compound 3e] | > 50 | > 50 | > 50 | > 50 | > 50 |
| O=C(O)/C(S)=C/c1ccccc1Cc1ccc2ccccc2c1 [Compound 6s] | 0.06 ± 0.003 | 0.08 ± 0.002 | 0.2 ± 0.03 | 0.1 ± 0.003 | 1.1 ± 1.7 |
| Cc1ccc(/C=C2\SC(=S)N(CC(=O)O)C2=O)cc1 [Compound 3b] | > 50 | > 50 | > 50 | 32 ± 0.7 | > 50 |
| Cc1cccc(C)c1/C=C1\SC(=S)N(CC(=O)NN2CCN(C)CC2)C1=O [Compound 5q] | 0.2 | 2.7 | 27 | 29.4 | > 50 |
| O=C(O)CN1C(=O)/C(=C/c2cc(Cl)ccc2Cl)SC1=S [Compound 3o] | 16.6 ± 1 | > 50 | > 50 | > 50 | > 50 |
| O=C(O)CN1C(=O)/C(=C/c2ccccc2F)SC1=S [Compound 3f] | > 50 | > 50 | > 50 | 17.6 ± 0.7 | > 50 |
| O=C(O)/C(S)=C/c1ccccc1Br [Compound 6h] | 3.5 | 0.8 | 5.8 | 2.7 | 16.2 |
| O=C(O)CN1C(=O)/C(=C/c2ccccc2Br)SC1=S [Compound 3h] | 36.6 ± 0.8 | 32.5 ± 1.3 | > 50 | > 50 | > 50 |
| CN1CCN(NC(=O)CN2C(=O)/C(=C/c3ccccc3I)SC2=S)CC1 [Compound 5i] | 8.8 | 37.1 | > 50 | 37.6 | > 50 |
| O=C(O)CN1C(=O)/C(=C/c2csc3ccccc23)SC1=S [Compound 3L] | 13.9 ± 0.5 | > 50 | 21.7 ± 2.4 | 36.9 ± 0.2 | > 50 |
| O=C(O)CN1C(=O)/C(=C/c2cccc(Cl)c2Cl)SC1=S [Compound 3n] | 1 ± 0.1 | 46.2 ± 1.4 | 22.1 ± 1 | 7.6 ± 0.3 | > 50 |
| O=C(O)/C(S)=C/c1ccccc1Cl [Compound 6g] | 0.1 | 0.4 | 0.9 | 0.4 | 5.1 |
| O=C(O)CN1C(=O)/C(=C/c2ccc(F)cc2)SC1=S [Compound 3c] | > 50 | > 50 | > 50 | 34.5 ± 0.6 | > 50 |
| O=C(O)CN1C(=O)/C(=C/c2c(Cl)cccc2Cl)SC1=S [Compound 3m] | 3.5 ± 0.4 | 18.9 ± 0.8 | 41.8 ± 2.3 | 0.6 ± 0.1 | > 50 |

— PMC6008492, “Structure activity relationship studies on rhodanines and derived enethiol inhibitors of metallo-β-lactamases” (Bioorganic & Medicinal Chemistry, 2018)
